Reference: PMC11822212, “High-throughput screening identifies Aurora kinase B as a critical therapeutic target for Merkel cell carcinoma” (Nature Communications, 2025)
Counter-ions that a name gives are not always drawn.

Assays:
MCC26 cells (VN-MCC) = test: qHTS cell viability (CellTiter-Glo, 72 h; primary and follow-up small molecule screen); format: cell-based, human
NIH-3T3 cells = test: qHTS cell viability (CellTiter-Glo, 72 h; primary screen), control cell line; format: cell-based, mouse
HEK293T cells = test: as above; format: cell-based, human
[1] = tested on: MCC cell lines (WAGA, MKL-1, MKL-2, MCC13, MCC26, UISO); test: qHTS cell viability, all six MCC cell lines as a group (mean AUC, MCC.avg); format: cell-based, human
CRL-7250 cells = test: qHTS cell viability (CellTiter-Glo, 72 h; primary screen), control cell line; format: cell-based
HACAT cells = test: as above; format: cell-based, human
MKL-1 cells (VP-MCC) = test: qHTS cell viability (CellTiter-Glo, 72 h; primary and follow-up small molecule screen); format: cell-based, human
MKL-2 cells (VP-MCC) = test: as above; format: cell-based, human
[2] = tested on: VN-MCC cell lines (MCC13, MCC26, UISO); test: qHTS cell viability, VN-MCC cell lines as a group (mean AUC, VN.MCC.avg); format: cell-based, human; conditions: for VN-MCC_Avg_AUC: mean AUC of VN-MCC cell lines
MCC13 cells (VN-MCC) = test: qHTS cell viability (CellTiter-Glo, 72 h; primary and follow-up small molecule screen); format: cell-based, human
UISO cells (VN-MCC) = test: as above; format: cell-based, human
[3] = tested on: VP-MCC cell lines (WAGA, MKL-1, MKL-2); test: qHTS cell viability, VP-MCC cell lines as a group (mean AUC, VP.MCC.avg); format: cell-based, human; conditions: for VP-MCC_Avg_AUC: mean AUC of VP-MCC cell lines
[4] = tested on: six MCC cell lines and four control cell lines; test: qHTS cell viability, all 10 cell lines screened; format: cell-based
[5] = tested on: control cell lines (HACAT, HEK293T, CRL-7250, NIH-3T3); test: qHTS cell viability, control cell lines as a group (mean AUC, Control.avg); format: cell-based; conditions: mean AUC of control cell lines
WAGA cells (VP-MCC) = test: qHTS cell viability (CellTiter-Glo, 72 h; primary and follow-up small molecule screen); format: cell-based, human
[6] = NPC library, 8-point DRC, area under dose-response curve
[7] = NPC library, 8-point DRC, control cell line
[8] = NPC library, mean AUC of six MCC cell lines
[9] = MIPE library, 11-point DRC, sheet S2E
[10] = MIPE library, 11-point DRC, control cell line, sheet S2E
[11] = MIPE library, mean AUC of six MCC cell lines, sheet S2E
[12] = MIPE library, Control AUC minus VN-MCC AUC (therapeutic window), sheet S2E
[13] = MIPE library, Control AUC minus VP-MCC AUC (therapeutic window), sheet S2E
[14] = MIPE library, Control AUC minus MCC AUC (therapeutic window), sheet S2E
[15] = NPC library; qHTS dose-response AUC, MCC26
[16] = NPC library, qHTS dose-response AUC, NIH3T3 control
[17] = NPC library, qHTS dose-response AUC, CRL7250 control
[18] = NPC library, qHTS dose-response AUC, HACAT control
[19] = NPC library, qHTS dose-response AUC, MKL1
[20] = NPC library, qHTS dose-response AUC, MKL2
[21] = NPC library, therapeutic window: Control avg AUC minus VN-MCC avg AUC
[22] = NPC library, qHTS dose-response AUC, MCC13
[23] = NPC library, qHTS dose-response AUC, UISO
[24] = NPC library, therapeutic window: Control avg AUC minus VP-MCC avg AUC
[25] = NPC library, therapeutic window: Control avg AUC minus MCC avg AUC
[26] = NPC library, qHTS dose-response AUC, WAGA

With `COc1ccc(CCN(C)CCCC(C#N)(c2cc(OC)c(OC)c(OC)c2)C(C)C)cc1OC` (stereo not drawn) [Gallopamil hydrochloride] the MCC26_AUC (MCC26 cells (VN-MCC); [6]) was 402.644, the NIH3T3_AUC (NIH-3T3 cells; [7]) was 476.798 and the HEK293T_AUC (HEK293T cells; [7]) was 464.897. For the same compound, the MCC_Avg_AUC [1, 8] was 434.143, the CRL7250_AUC (CRL-7250 cells; [7]) was 487.096 and the HACAT_AUC (HACAT cells; [7]) was 488.048. The MKL1_AUC (MKL-1 cells (VP-MCC); [6]) was 429.324, the MKL2_AUC (MKL-2 cells (VP-MCC); [6]) was 457.405 and the Control-VN-MCC ([2]; NPC library, Control AUC minus VN-MCC AUC (therapeutic window)) was 54.804. The VN-MCC_Avg_AUC ([2]; NPC library) was 424.406, the MCC13_AUC (MCC13 cells (VN-MCC); [6]) was 438.844 and the UISO_AUC (UISO cells (VN-MCC); [6]) was 431.729. For the same compound, the Control-VP-MCC ([3]; NPC library, Control AUC minus VP-MCC AUC (therapeutic window)) was 35.3303, the VP-MCC_Avg_AUC ([3]; NPC library) was 443.879 and the Control-MCC ([4]; NPC library, Control AUC minus MCC AUC (therapeutic window)) was 45.0671. It also gave a Control_Avg_AUC ([5]; NPC library) of 479.21 and a WAGA_AUC (WAGA cells (VP-MCC); [6]) of 444.909.

`C=CC(=O)Nc1cccc(Nc2nc(NC3CCC(N(C)C)CC3)nc3c2ncn3C(C)C)c1` (stereo not drawn) [HMSL10084] gave an MCC26_AUC (MCC26 cells (VN-MCC); [9]) of 381.337, an NIH3T3_AUC (NIH-3T3 cells; [10]) of 437.409 and an HEK293T_AUC (HEK293T cells; [10]) of 317.706. For the same compound, the MCC_Avg_AUC [1, 11] was 269.649, the CRL7250_AUC (CRL-7250 cells; [10]) was 274.567 and the HACAT_AUC (HACAT cells; [10]) was 381.06. The MKL1_AUC (MKL-1 cells (VP-MCC); [9]) was 144.905, the MKL2_AUC (MKL-2 cells (VP-MCC); [9]) was 208.594 and the Control-VN-MCC [2, 12] was -8.265. The VN-MCC_Avg_AUC ([2]; MIPE library, sheet S2E) was 360.951, the MCC13_AUC (MCC13 cells (VN-MCC); [9]) was 424.628 and the UISO_AUC (UISO cells (VN-MCC); [9]) was 276.887. The Control-VP-MCC [3, 13] was 174.338, the VP-MCC_Avg_AUC ([3]; MIPE library, sheet S2E) was 178.348 and the Control-MCC [4, 14] was 83.0363. For the same compound, the Control_Avg_AUC ([5]; MIPE library, sheet S2E) was 352.686 and the WAGA_AUC (WAGA cells (VP-MCC); [9]) was 181.546.

Compound `Oc1ccc(O)cc1` [Hydroquinone] has an MCC26_AUC (MCC26 cells (VN-MCC); [15]) of 512.585, an MCC26_AUC (MCC26 cells (VN-MCC); area under the dose-response curve, MCC26 cells; AUC<450 = reduced viability) of 512.585 and an NIH3T3_AUC (NIH-3T3 cells; [16]) of 488.45. For the same compound, the NIH3T3_AUC (NIH-3T3 cells; area under the dose-response curve, NIH3T3 control cells, AUC<450 = reduced viability) was 488.45, the HEK293T_AUC (HEK293T cells; NPC library; qHTS dose-response AUC, HEK293T control) was 480.593 and the HEK293T_AUC (HEK293T cells; area under the dose-response curve, HEK293T control cells; AUC<450 = reduced viability) was 480.593. For the same compound, the MCC_Avg_AUC [1, 8] was 442.057, the CRL7250_AUC (CRL-7250 cells; [17]) was 487.877 and the CRL7250_AUC (CRL-7250 cells; area under the dose-response curve, CRL7250 control cells, AUC<450 = reduced viability) was 487.877. For the same compound, the HACAT_AUC (HACAT cells; [18]) was 491.952, the HACAT_AUC (HACAT cells; area under the dose-response curve, HACAT control cells, AUC<450 = reduced viability) was 491.952 and the MKL1_AUC (MKL-1 cells (VP-MCC); [19]) was 415.173. The MKL1_AUC (MKL-1 cells (VP-MCC); area under the dose-response curve, MKL-1 cells, AUC<450 = reduced viability) was 415.173, the MKL2_AUC (MKL-2 cells (VP-MCC); [20]) was 400.457 and the MKL2_AUC (MKL-2 cells (VP-MCC); area under the dose-response curve, MKL-2 cells, AUC<450 = reduced viability) was 400.457. The VN-MCC_Avg_AUC ([2]; NPC library) was 488.855, the Control-VN-MCC [2, 21] was -1.637 and the MCC13_AUC (MCC13 cells (VN-MCC); [22]) was 503.441. For the same compound, the MCC13_AUC (MCC13 cells (VN-MCC); area under the dose-response curve, MCC13 cells, AUC<450 = reduced viability) was 503.441, the UISO_AUC (UISO cells (VN-MCC); [23]) was 450.538 and the UISO_AUC (UISO cells (VN-MCC); area under the dose-response curve, UISO cells, AUC<450 = reduced viability) was 450.538. For the same compound, the VP-MCC_Avg_AUC ([3]; NPC library) was 395.258, the Control-VP-MCC [3, 24] was 91.96 and the Control-MCC [4, 25] was 45.1616. For the same compound, the Control_Avg_AUC ([5]; NPC library) was 487.218, the WAGA_AUC (WAGA cells (VP-MCC); [26]) was 370.144 and the WAGA_AUC (WAGA cells (VP-MCC); area under the dose-response curve, WAGA cells, AUC<450 = reduced viability) was 370.144.

With `CCCCCC(=O)O[C@]1(C(C)=O)CC[C@H]2[C@@H]3CCC4=CC(=O)CC[C@]4(C)[C@H]3CC[C@@]21C` [Hydroxyprogesterone caproate] the MCC26_AUC (MCC26 cells (VN-MCC); NPC library, qHTS dose-response AUC, MCC26) was 432.584, the MCC26_AUC (MCC26 cells (VN-MCC); [15]) was 432.583 and the NIH3T3_AUC (NIH-3T3 cells; [16]) was 480.983. The HEK293T_AUC (HEK293T cells; NPC library, qHTS dose-response AUC, HEK293T control) was 404.302, the MCC_Avg_AUC ([1]; NPC library, mean AUC of all 6 MCC cell lines) was 381.038 and the MCC_Avg_AUC [1, 8] was 381.038. For the same compound, the CRL7250_AUC (CRL-7250 cells; [17]) was 467.486, the HACAT_AUC (HACAT cells; [18]) was 471.336 and the MKL1_AUC (MKL-1 cells (VP-MCC); [19]) was 343.375. It also gave an MKL2_AUC (MKL-2 cells (VP-MCC); [20]) of 288.23, a Control-VN-MCC ([2]; Control AUC minus VN-MCC AUC) of 24.569 and a VN-MCC_Avg_AUC ([2]; NPC library) of 431.458. The Control-VN-MCC [2, 21] was 24.569, the MCC13_AUC (MCC13 cells (VN-MCC); [22]) was 442.155 and the UISO_AUC (UISO cells (VN-MCC); [23]) was 419.635. For the same compound, the Control-VP-MCC ([3]; Control AUC minus VP-MCC AUC) was 125.408, the VP-MCC_Avg_AUC ([3]; NPC library) was 330.619 and the Control-VP-MCC [3, 24] was 125.408. The Control-MCC [4, 25] was 74.9886, the Control_Avg_AUC ([5]; NPC library) was 456.027 and the WAGA_AUC (WAGA cells (VP-MCC); [26]) was 360.251.

Compound `CC(C)(C)OC(=O)Nc1ccc(-c2cc(C(=O)NCCCCCCC(=O)NO)no2)cc1` [ISOX] has an MCC26_AUC (MCC26 cells (VN-MCC); [9]) of 447.653, an NIH3T3_AUC (NIH-3T3 cells; [10]) of 388.752 and an HEK293T_AUC (HEK293T cells; [10]) of 382.485. For the same compound, the MCC_Avg_AUC [1, 11] was 390.195, the CRL7250_AUC (CRL-7250 cells; [10]) was 411.627 and the HACAT_AUC (HACAT cells; [10]) was 439.928. For the same compound, the MKL1_AUC (MKL-1 cells (VP-MCC); [9]) was 349.979, the MKL2_AUC (MKL-2 cells (VP-MCC); [9]) was 356.229 and the Control-VN-MCC [2, 12] was -20.9846. For the same compound, the VN-MCC_Avg_AUC ([2]; MIPE library, sheet S2E) was 426.683, the MCC13_AUC (MCC13 cells (VN-MCC); [9]) was 413.98 and the UISO_AUC (UISO cells (VN-MCC); [9]) was 418.415. For the same compound, the Control-VP-MCC [3, 13] was 51.9911, the VP-MCC_Avg_AUC ([3]; MIPE library, sheet S2E) was 353.707 and the Control-MCC [4, 14] was 15.5032. It also gave a Control_Avg_AUC ([5]; MIPE library, sheet S2E) of 405.698 and a WAGA_AUC (WAGA cells (VP-MCC); [9]) of 354.914.
